target: S1P1 (Homo sapiens, UniProt P21453); assay: S1P1 receptor agonism (EC50 statement); assay type: biochemical; details: not given
Sequence (P21453 whole entry, species assumed): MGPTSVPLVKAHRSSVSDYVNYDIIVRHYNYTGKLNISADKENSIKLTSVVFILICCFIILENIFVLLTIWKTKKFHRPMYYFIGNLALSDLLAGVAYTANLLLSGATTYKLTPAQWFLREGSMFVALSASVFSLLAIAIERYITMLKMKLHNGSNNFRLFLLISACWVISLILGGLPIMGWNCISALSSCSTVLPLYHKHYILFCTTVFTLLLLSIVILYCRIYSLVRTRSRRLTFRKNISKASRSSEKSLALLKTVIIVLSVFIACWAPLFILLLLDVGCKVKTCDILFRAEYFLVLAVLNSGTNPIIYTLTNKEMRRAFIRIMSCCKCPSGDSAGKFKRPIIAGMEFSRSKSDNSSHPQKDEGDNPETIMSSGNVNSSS

SMILES	EC50
CCCc1ccc(COc2ccc3c(c2)CCC(CN2CC(C(=O)O)C2)=C3C)c(OC)c1 [Compound 1, ceralifimod]	11.8 nM

target: S1P5 (Homo sapiens, UniProt Q9H228); assay: S1P5 receptor agonism (EC50 statement); assay type: biochemical; details: not given
Sequence (Q9H228 whole entry, species assumed): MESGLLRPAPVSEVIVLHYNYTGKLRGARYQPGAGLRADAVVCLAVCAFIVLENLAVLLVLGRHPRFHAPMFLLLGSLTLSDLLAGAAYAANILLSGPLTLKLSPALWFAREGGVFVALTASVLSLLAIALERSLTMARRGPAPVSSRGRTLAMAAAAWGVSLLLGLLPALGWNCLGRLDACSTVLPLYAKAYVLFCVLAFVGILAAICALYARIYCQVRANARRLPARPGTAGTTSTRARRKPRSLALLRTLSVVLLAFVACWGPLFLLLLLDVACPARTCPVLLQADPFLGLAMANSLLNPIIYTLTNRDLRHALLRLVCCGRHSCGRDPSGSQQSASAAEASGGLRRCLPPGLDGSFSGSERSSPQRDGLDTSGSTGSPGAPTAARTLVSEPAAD

SMILES	EC50
CCCc1ccc(COc2ccc3c(c2)CCC(CN2CC(C(=O)O)C2)=C3C)c(OC)c1 [Compound 1, ceralifimod]	1 nM

target: T1, recombinant human FAAH (rhFAAH) (Homo sapiens, UniProt O00519); assay: FAAH substrate evaluation: formation of acid metabolite by purified recombinant human FAAH (rhFAAH); assay type: biochemical; details: role: substrate; 1 μM test compound, 0.5 ng/μL rhFAAH, 1.25% ethanol or 1 μM PF-3845 (FAAH inhibitor), 0.1% BSA, Tris-EDTA pH 8.0, room temperature, 0-60 minutes
T1 sequence (O00519 1-579): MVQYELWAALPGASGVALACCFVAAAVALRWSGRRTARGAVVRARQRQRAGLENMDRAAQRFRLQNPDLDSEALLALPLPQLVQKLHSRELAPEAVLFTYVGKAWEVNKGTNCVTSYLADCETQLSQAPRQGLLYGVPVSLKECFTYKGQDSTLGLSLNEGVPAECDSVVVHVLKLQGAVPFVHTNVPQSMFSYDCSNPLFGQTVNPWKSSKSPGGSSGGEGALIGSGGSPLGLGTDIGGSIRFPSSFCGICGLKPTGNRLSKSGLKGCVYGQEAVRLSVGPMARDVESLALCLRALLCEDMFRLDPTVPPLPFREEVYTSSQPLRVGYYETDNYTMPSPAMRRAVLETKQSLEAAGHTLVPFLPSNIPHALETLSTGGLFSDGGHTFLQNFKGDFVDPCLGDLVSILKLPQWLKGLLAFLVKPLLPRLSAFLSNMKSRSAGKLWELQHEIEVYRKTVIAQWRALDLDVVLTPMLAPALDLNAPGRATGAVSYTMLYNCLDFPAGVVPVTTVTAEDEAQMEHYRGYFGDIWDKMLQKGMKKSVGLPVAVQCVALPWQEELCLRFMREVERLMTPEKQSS
Procedure: Purified recombinant human FAAH (rhFAAH) was purchased from Cayman Chemical (Ann Arbor, MI, USA). The total volume for each incubation was 400 μL containing a final 0.5 ng/μL rhFAAH, 1 μM test compound, 1.25% ethanol or 1 μM PF-3845 (FAAH inhibitor), and 0.1% bovine serum albumin in Tris-EDTA buffer at pH 8.0). The incubation was conducted at room temperature. At 0, 5, 15, 30 and 60 minutes, an aliquot of 30 μL reaction mixtures was removed and mixed with 300 μL acetonitrile containing 5 ng/mL terfenadine and 10 ng/mL tolbutamide as internal standards to quench the reaction. The resulting mixture was centrifuged at 4000 rpm, 4 °C for 15 minutes, and 100 μL supernatant was ready for LC-MS/MS analysis to measure the formation of acid metabolite.
Acquity Ultra Performance LC system from Waters was used for sample analysis. The chromatography was performed on a reverse phase Kinetex 2.6 μm C18 column, 2.1×30 mm, 100 Å. The mobile phase A comprised of 0.1% formic acid in water and mobile phase B comprised of 0.1% formic acid in acetonitrile with a 1.5 min run time at the flow rate of 0.9 mL/min for the acid metabolite of test compounds. The mass spectrometer (API-5500 and API Q Trap 4000 Applied Biosystems/MDS SCIEX Instruments, Framingham, MA, USA) was operated under ESI positive or negative ion MRM mode.
The formation of acid metabolite was monitored and quantified using one calibration point of 1 μM. The observed rate constant (ke) for the acid metabolite formation was calculated by plotting the metabolite concentration versus time of incubation with the slope being ke and is shown in Table 1.

ke (observed rate constant for the acid metabolite formation)	SMILES
B (ke is less than 1.0 and more than 0)	CCCc1ccc(COc2ccc3c(c2)CCC(CN2CC(C(=O)NC)C2)=C3C)c(OC)c1 [Compound 2, 1-((6-((2-methoxy-4-propylbenzyl)oxy)-1-methyl-3,4-dihydronaphthalen-2-yl)methyl)-N-methylazetidine-3-carboxamide]
B (ke is less than 1.0 and more than 0)	CCCc1ccc(COc2ccc3c(c2)CCC(CN2CC(C(=O)Nc4cccnc4)C2)=C3C)c(OC)c1 [Compound 3, 1-((6-((2-methoxy-4-propylbenzyl)oxy)-1-methyl-3,4-dihydronaphthalen-2-yl)methyl)-N-(pyridin-3-yl)azetidine-3-carboxamide]
A (ke is more than or equal to 1.0)	CCCc1ccc(COc2ccc3c(c2)CCC(CN2CC(C(=O)Nc4cccnn4)C2)=C3C)c(OC)c1 [Compound 4, 1-((6-((2-methoxy-4-propylbenzyl)oxy)-1-methyl-3,4-dihydronaphthalen-2-yl)methyl)-N-(pyridazin-3-yl)azetidine-3-carboxamide]
A (ke is more than or equal to 1.0)	CCCc1ccc(COc2ccc3c(c2)CCC(CN2CC(C(=O)NCCCF)C2)=C3C)c(OC)c1 [Compound 5, N-(3-fluoropropyl)-1-((6-((2-methoxy-4-propylbenzyl)oxy)-1-methyl-3,4-dihydronaphthalen-2-yl)methyl)azetidine-3-carboxamide]
A (ke is more than or equal to 1.0)	CCCc1ccc(COc2ccc3c(c2)CCC(CN2CC(C(=O)NCC(F)(F)F)C2)=C3C)c(OC)c1 [Compound 6, 1-((6-((2-methoxy-4-propylbenzyl)oxy)-1-methyl-3,4-dihydronaphthalen-2-yl)methyl)-N-(2,2,2-trifluoroethyl)azetidine-3-carboxamide]
A (ke is more than or equal to 1.0)	CCCc1ccc(COc2ccc3c(c2)CCC(CN2CC(C(=O)NCC4CC4)C2)=C3C)c(OC)c1 [Compound 7, N-(cyclopropylmethyl)-1-((6-((2-methoxy-4-propylbenzyl)oxy)-1-methyl-3,4-dihydronaphthalen-2-yl)methyl)azetidine-3-carboxamide]
A (ke is more than or equal to 1.0)	CCCc1ccc(COc2ccc3c(c2)CCC(CN2CC(C(=O)NC4CC4)C2)=C3C)c(OC)c1 [Compound 8, N-cyclopropyl-1-((6-((2-methoxy-4-propylbenzyl)oxy)-1-methyl-3,4-dihydronaphthalen-2-yl)methyl)azetidine-3-carboxamide]
A (ke is more than or equal to 1.0)	CCCc1ccc(COc2ccc3c(c2)CCC(CN2CC(C(=O)N[C@H](C)CC)C2)=C3C)c(OC)c1 [Compound 9, (R)—N-(sec-butyl)-1-((6-((2-methoxy-4-propylbenzyl)oxy)-1-methyl-3,4-dihydronaphthalen-2-yl)methyl)azetidine-3-carboxamide]
B (ke is less than 1.0 and more than 0)	CCCc1ccc(COc2ccc3c(c2)CCC(CN2CC(C(=O)N[C@@H](C)CC)C2)=C3C)c(OC)c1 [Compound 10, (S)—N-(sec-butyl)-1-((6-((2-methoxy-4-propylbenzyl)oxy)-1-methyl-3,4-dihydronaphthalen-2-yl)methyl)azetidine-3-carboxamide]
A (ke is more than or equal to 1.0)	CCCc1ccc(COc2ccc3c(c2)CCC(CN2CC(C(=O)NCCC(F)(F)F)C2)=C3C)c(OC)c1 [Compound 11, 1-((6-((2-methoxy-4-propylbenzyl)oxy)-1-methyl-3,4-dihydronaphthalen-2-yl)methyl)-N-(3,3,3-trifluoropropyl)azetidine-3-carboxamide]
A (ke is more than or equal to 1.0)	CCCc1ccc(COc2ccc3c(c2)CCC(CN2CC(C(=O)N4CCC4)C2)=C3C)c(OC)c1 [Compound 12, azetidin-1-yl(1-((6-((2-methoxy-4-propylbenzyl)oxy)-1-methyl-3,4-dihydronaphthalen-2-yl)methyl)azetidin-3-yl)methanone]
A (ke is more than or equal to 1.0)	CCCc1ccc(COc2ccc3c(c2)CCC(CN2CC(C(=O)Nc4ccncc4)C2)=C3C)c(OC)c1 [Compound 13, 1-((6-((2-methoxy-4-propylbenzyl)oxy)-1-methyl-3,4-dihydronaphthalen-2-yl)methyl)-N-(pyridin-4-yl)azetidine-3-carboxamide]
C (ke is 0)	CCCCN(C)C(=O)C1CN(CC2=C(C)c3ccc(OCc4ccc(CCC)cc4OC)cc3CC2)C1 [Compound 14, N-butyl-1-((6-((2-methoxy-4-propylbenzyl)oxy)-1-methyl-3,4-dihydronaphthalen-2-yl)methyl)-N-methylazetidine-3-carboxamide]
A (ke is more than or equal to 1.0)	CCCCNC(=O)C1CN(CC2=C(C)c3ccc(OCc4ccc(CCC)cc4OC)cc3CC2)C1 [Compound 15, N-butyl-1-((6-((2-methoxy-4-propylbenzyl)oxy)-1-methyl-3,4-dihydronaphthalen-2-yl)methyl)azetidine-3-carboxamide]
C (ke is 0)	CCCc1ccc(COc2ccc3c(c2)CCC(CN2CC(C(=O)N(CC)CC)C2)=C3C)c(OC)c1 [Compound 16, N,N-diethyl-1-((6-((2-methoxy-4-propylbenzyl)oxy)-1-methyl-3,4-dihydronaphthalen-2-yl)methyl)azetidine-3-carboxamide]
C (ke is 0)	CCCc1ccc(COc2ccc3c(c2)CCC(CN2CC(C(=O)N(C)CC)C2)=C3C)c(OC)c1 [Compound 17, N-ethyl-1-((6-((2-methoxy-4-propylbenzyl)oxy)-1-methyl-3,4-dihydronaphthalen-2-yl)methyl)-N-methylazetidine-3-carboxamide]
A (ke is more than or equal to 1.0)	CCCNC(=O)C1CN(CC2=C(C)c3ccc(OCc4ccc(CCC)cc4OC)cc3CC2)C1 [Compound 18, 1-((6-((2-methoxy-4-propylbenzyl)oxy)-1-methyl-3,4-dihydronaphthalen-2-yl)methyl)-N-propylazetidine-3-carboxamide]
A (ke is more than or equal to 1.0)	CCCc1ccc(COc2ccc3c(c2)CCC(CN2CC(C(=O)NCC)C2)=C3C)c(OC)c1 [Compound 19, N-ethyl-1-((6-((2-methoxy-4-propylbenzyl)oxy)-1-methyl-3,4-dihydronaphthalen-2-yl)methyl)azetidine-3-carboxamide]
A (ke is more than or equal to 1.0)	CCCc1ccc(COc2ccc3c(c2)CCC(CN2CC(C(=O)NOC)C2)=C3C)c(OC)c1 [Compound 20, N-methoxy-1-((6-((2-methoxy-4-propylbenzyl)oxy)-1-methyl-3,4-dihydronaphthalen-2-yl)methyl)azetidine-3-carboxamide]
A (ke is more than or equal to 1.0)	CCCc1ccc(COc2ccc3c(c2)CCC(CN2CC(C(=O)N(C)OC)C2)=C3C)c(OC)c1 [Compound 21, N-methoxy-1-((6-((2-methoxy-4-propylbenzyl)oxy)-1-methyl-3,4-dihydronaphthalen-2-yl)methyl)-N-methylazetidine-3-carboxamide]
B (ke is less than 1.0 and more than 0)	CCCc1ccc(COc2ccc3c(c2)CCC(CN2CC(C(=O)N(C)C)C2)=C3C)c(OC)c1 [Compound 23, 1-((6-((2-methoxy-4-propylbenzyl)oxy)-1-methyl-3,4-dihydronaphthalen-2-yl)methyl)-N,N-dimethylazetidine-3-carboxamide]

From patent US20260374751A1, “AMIDE PRODRUGS AND USES THEREOF” (Autobahn Therapeutics, Inc., priority 2022, published 2026)
